Here are results for four molecules from article PMC9796023, “In vivo and in vitro characterization of GL0034, a novel long‐acting glucagon‐like peptide‐1 receptor agonist” (Diabetes, Obesity & Metabolism, 2022).

Data set [1] deals with human serum albumin (human) (UniProt P02768).
Data set [2] concerns HFHS diet-fed C57BL6/J mice. Nature of the data set: Study in high-fat, high-sucrose diet-fed mice. It counts as in vivo, mouse. The following applies: end of study, n = 3. How it is done: Male C57BL6/J mice were purchased from Charles River (UK). The mice were housed in a pathogen‐free facility with a 12‐hour light/12‐hour dark cycle. From the age of 8 weeks they were put on a 58 kcal % fat and sucrose diet (D12331; Research Diets Inc., New Brunswick, New Jersey) for 8 weeks to induce obesity and glucose intolerance. […] Body weight was monitored at regular intervals. For glucose tolerance testing, mice were fasted overnight (total 16 hours) and given free access to water. At 9:00 AM, glucose (3 g/kg body weight) was administered via intraperitoneal injection or oral gavage. Blood was sampled from the tail vein at 0, 5, 15, 30, 60 and 90 minutes after glucose administration. Blood glucose was measured with an automatic glucometer (Accuchek; Roche, Burgess Hill, UK). To quantify circulating insulin, 10 μL blood was collected from the tail vein into heparin‐coated tubes (Sarstedt, Beaumont Leys, UK). Plasma was separated by sedimentation at 10 000g for 10 minutes at 4°C. Plasma insulin levels were measured in 5‐μL aliquots by ELISA kits from Crystal Chem (Elk Grove Village, Illinois). At the end of the study, pancreata were isolated and processed for immunohistochemistry.

For data set [3], the target named is T1, human SNAP-GLP-1R (HEK293-SNAP-GLP-1R cells) (Homo sapiens, UniProt P43220).
T1 construct: expressed in transfected cells
T1 sequence (P43220 24-463): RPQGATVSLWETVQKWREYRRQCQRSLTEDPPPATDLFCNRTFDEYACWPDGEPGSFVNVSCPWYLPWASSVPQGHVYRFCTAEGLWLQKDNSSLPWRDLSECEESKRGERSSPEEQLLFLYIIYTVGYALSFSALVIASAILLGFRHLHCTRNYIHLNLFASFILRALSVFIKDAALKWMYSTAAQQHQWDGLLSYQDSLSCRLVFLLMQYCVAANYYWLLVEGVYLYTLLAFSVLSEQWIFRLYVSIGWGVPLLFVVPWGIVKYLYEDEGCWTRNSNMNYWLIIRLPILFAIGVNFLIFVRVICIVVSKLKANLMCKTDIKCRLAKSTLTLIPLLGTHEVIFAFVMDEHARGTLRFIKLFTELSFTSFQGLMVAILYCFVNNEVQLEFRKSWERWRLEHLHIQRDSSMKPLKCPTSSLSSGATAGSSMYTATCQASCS
The data set can be described thus: cAMP assay (HTRF) in HEK293-SNAP-GLP-1R cells. It counts as cell-based. How it is done:
HEK293‐SNAP‐GLP‐1R cells were stimulated with agonist for 30 minutes at 37°C, either in serum‐free media (SFM) or SFM supplemented with 2% human serum albumin (HSA; Sigma Aldrich, Poole, UK). cAMP was determined at the end of the incubation period by homogenous time‐resolved fluorescence (HTRF; cAMP Dynamic 2 kit; Cisbio) using a Spectramax i3x plate reader (Molecular Devices, Wokingham, UK).
For in vitro data, the average of within‐assay replicates was counted as one biological replicate. For kinetic binding assays, rate constants for association and dissociation of the unlabelled ligands were calculated using the “kinetics of competition binding” algorithm in PRISM 8 (GraphPad Software), using values for exendin(9‐39)‐FITC determined in the same experiment. Functional concentration response data were fitted using three‐parameter logistic fitting (PRISM 8), with constraints applied where appropriate. Pharmacokinetic analysis was performed using Phoenix® Win‐Nonlin® (Version 8.0). Statistical comparisons were performed using Student's t‐test or one‐way ANOVA, as appropriate. Paired or matched analyses were performed where permitted by the experimental design. Specific post hoc tests are indicated in the legends. Statistical significance was assigned where P < 0.05. […]
(In general: Changes in cAMP serve as a functional read-out for many G protein-coupled receptors.)

Data set [4] can be described thus: Plasma pharmacokinetic study in CD-1 mice. Format: in vivo, mouse. The settings on record: male CD-1 mice, single s.c. 1 mg/kg, LC-MS/MS, n = 5 per timepoint. How it is done: A plasma pharmacokinetic study of GL0034 was performed in male CD‐1 Mice (6‐9 weeks of age; 30‐50 g body weight) procured from the Laboratory Animal Resources Department of Sun Pharma Advanced Research Company Ltd (www.sparc.life, a subsidiary of Sun Pharma Industries Ltd.). For full details see Supplementary Methods.
(§1) For in vitro data, the average of within‐assay replicates was counted as one biological replicate. For kinetic binding assays, rate constants for association and dissociation of the unlabelled ligands were calculated using the “kinetics of competition binding” algorithm in PRISM 8 (GraphPad Software), using values for exendin(9‐39)‐FITC determined in the same experiment. Functional concentration response data were fitted using three‐parameter logistic fitting (PRISM 8), with constraints applied where appropriate. Pharmacokinetic analysis was performed using Phoenix® Win‐Nonlin® (Version 8.0). Statistical comparisons were performed using Student's t‐test or one‐way ANOVA, as appropriate. Paired or matched analyses were performed where permitted by the experimental design. Specific post hoc tests are indicated in the legends. Statistical significance was assigned where P < 0.05. Data are represented as mean ± standard error of the mean (SEM) throughout, with individual replicates indicated where possible.
Animals (n=45) were procured from Laboratory Animal Resources Dept. of Sun Pharma Advanced Research Company Ltd. (www.sparc.life, a subsidiary of Sun Pharma Industries Ltd.). Animals were acclimatized for one day. On day 0, each animal was weighed. Animals were divided into 9 groups, each group containing 5 male animals (one group representing one time-point). All the animals were injected subcutaneously at a dose of 1 mg/kg (dose volume: 10 ml/kg) using 26½ gauge needle attached to an appropriately graduated syringe. At 1, 2, 4, 8, 12, 24, 48, 72 and 96 hours after injection, ~500 µL of blood was collected from mice by retro-orbital plexus puncture using capillary micro-centrifuge tubes containing anticoagulant (15 µL of 10% K2EDTA per tube). Plasma was separated from the collected blood samples by centrifugation at ~3300 rpm (1985 g) for 10 min at 4°C ± 2°C. GL0034 concentrations were estimated using liquid chromatography with tandem mass spectrometry (LCMS-MS). Lower limit of quantitation (LLOQ) for GL0034 was 50 ng/mL.

Data set [5] concerns the target T2, GLP-1R (PathHunter CHO-K1-βarr2-EA-GLP-1R cells) (Homo sapiens, UniProt P43220).
T2 construct: host or cells: CHO-K1 (PathHunter, co-expressing β-arrestin-2-EA)
The data set can be described thus: PathHunter β-arrestin-2 recruitment assay. Format: cell-based. How it is done:
PathHunter CHO‐K1‐βarr2‐EA‐GLP‐1R cells were stimulated with agonist for 30 minutes at 37°C in Ham's F12 medium without FBS. At the end of the incubation period, cells were lysed by addition of PathHunter detection reagents and luminescent signal was subsequently recorded from each well.
Background: Activated receptors often draw arrestin, which recruitment assays turn into a signal.

The target in data set [6] is T1, human SNAP-GLP-1R (HEK293-SNAP-GLP-1R cells). The data set can be described thus: Time-resolved FRET kinetic competition binding vs exendin(9-39)-FITC. The protocol:
as §1

Data set [7] addresses human SNAP-GLP-1R (glucagon-like peptide-1 receptor) on HEK293 cells (human, UniProt P43220 24-463, SNAP tag labelled with SNAP-Lumi4-Tb). Nature of the data set: cell-based or functional assay.

Where no end group is shown, it is not given here. [ ]: non-standard residue; d: D form. Aib = CC(C)(N)C(=O)O

T2 sequence (P43220 24-463): as above
human SNAP-GLP-1R (glucagon-like peptide-1 receptor) on HEK293 cells, sequence (P43220 24-463): as above

GL0034 (peptide) displayed a ∆pEC50 of GLP-1R cAMP signalling potency with and without 2% HSA (HEK293-SNAP-GLP-1R cells) in data set [1] of 2.1.
Turning to `CC[C@H](C)[C@H](NC(=O)[C@H](Cc1ccccc1)NC(=O)[C@H](CCC(=O)O)NC(=O)[C@H](CCCCNC(=O)COCCOCCNC(=O)COCCOCCNC(=O)CC[C@H](NC(=O)CCCCCCCCCCCCCCCCC(=O)O)C(=O)O)NC(=O)[C@H](C)NC(=O)[C@H](C)NC(=O)[C@H](CCC(N)=O)NC(=O)CNC(=O)[C@H](CCC(=O)O)NC(=O)[C@H](CC(C)C)NC(=O)[C@H](Cc1ccc(O)cc1)NC(=O)[C@H](CO)NC(=O)[C@H](CO)NC(=O)[C@@H](NC(=O)[C@H](CC(=O)O)NC(=O)[C@H](CO)NC(=O)[C@@H](NC(=O)[C@H](Cc1ccccc1)NC(=O)[C@@H](NC(=O)CNC(=O)[C@H](CCC(=O)O)NC(=O)C(C)(C)NC(=O)[C@@H](N)Cc1cnc[nH]1)[C@@H](C)O)[C@@H](C)O)C(C)C)C(=O)N[C@@H](C)C(=O)N[C@@H](Cc1c[nH]c2ccccc12)C(=O)N[C@@H](CC(C)C)C(=O)N[C@H](C(=O)N[C@@H](CCCNC(=N)N)C(=O)NCC(=O)N[C@@H](CCCNC(=N)N)C(=O)NCC(=O)O)C(C)C` [Semaglutide, reference compound], in data set [2], the Plasma amylase levels result is “no difference”.
As to `CC[C@H](C)[C@H](NC(=O)[C@H](Cc1ccccc1)NC(=O)[C@H](CCC(=O)O)NC(=O)[C@H](CCCCNC(=O)COCCOCCNC(=O)C(C)(C)NC(=O)CC[C@H](NC(=O)CCCCCCCCCCCCCCCCC(=O)O)C(=O)O)NC(=O)[C@H](C)NC(=O)[C@H](C)NC(=O)[C@H](CCC(N)=O)NC(=O)CNC(=O)[C@H](CCC(=O)O)NC(=O)[C@H](CC(C)C)NC(=O)[C@H](Cc1ccc(O)cc1)NC(=O)[C@H](CO)NC(=O)[C@H](CO)NC(=O)[C@@H](NC(=O)[C@H](CC(=O)O)NC(=O)[C@H](CO)NC(=O)[C@@H](NC(=O)[C@H](Cc1ccccc1)NC(=O)[C@@H](NC(=O)CNC(=O)[C@H](CCC(=O)O)NC(=O)C(C)(C)NC(=O)[C@@H](N)Cc1c[nH]cn1)[C@@H](C)O)[C@@H](C)O)C(C)C)C(=O)N[C@@H](C)C(=O)N[C@@H](Cc1c[nH]c2ccccc12)C(=O)N[C@@H](CC(C)C)C(=O)N[C@H](C(=O)N[C@@H](CCCNC(=N)N)C(=O)NCC(=O)N[C@@H](CCCNC(=N)N)C(=O)NCC(=O)N[C@@H](CC(C)C)C(=O)O)C(C)C` [GL0034], the Emax in data set [3] (30 min, 37°C, estimate ± SEM, n = 5) is 97 ± 2%; in data set [5] (30 min, 37°C, Ham's F12 without FBS, estimate ± SEM, n = 5), 102 ± 1%. Moreover, the figures for the EC50 in data set [3] (read-out: cAMP LogEC50 (converted)) and in data set [5] (read-out: βarr2 LogEC50 (converted)) were 0.631 nM and 79.4 nM, respectively. Also, the Plasma amylase levels entry in data set [2] is on record as “no difference”. In data set [4], this molecule had a Kel of 0.0906 h⁻¹. This molecule also gave a Cmax in data set [4] (mouse, sc) of 921 nM. Also, in data set [4] (mouse, sc), the Tmax stood at 4 h. Further, in data set [4] (mouse, sc, read-out: t1/2 (plasma half-life) (converted)), the half-life is 7.65 h. The molecule also gave a Kd in data set [6] of 25.1 nM. Further, the koff in data set [6] (HEK293-SNAP-GLP-1R, 37°C, competition with 10 nM exendin(9-39)-FITC, estimate ± SEM, n = 4) is 0.00367 s⁻¹.

B1: GL0034 (peptide)
chain: H[Aib]EGTFTSDVSSYLEGQAAKEFIAWLVRGRGL
modifications: not fully specified (residue 20); also: K20 linker includes Aib, structure not given here
On to B1, for which, in data set [7], the “GLP-1R endocytosis (high content imaging), HEK293-SNAP-GLP-1R cells, LogEC50 (M)” value was -9.2 M (log) and the “cAMP production, HEK293-SNAP-GLP-1R cells, 30 minutes, LogEC50 (M)” value is -9.2 M (log).

One may read the Emax as the greatest response seen or fitted, relative to the assay's reference. A word on the Cmax: it is the peak of the concentration-time curve. A word on the Tmax: it is the time from dosing to the highest level. As a reminder, the Kd is a measure of binding affinity in units of concentration. High values mean a looser complex, low ones a tighter complex. One may read the koff as a measure of how fast the partners let go of each other.
